Values after ≈ are worked out from the molar mass of the structure shown.

Holding throughout (assay type): functional
For test [1], the system named is Lipid bilayer. Kind of test: Induction of membrane lysis in Staphylococcus aureus UL12 lipid vesicles assessed as calcein release at 93.73 uM by spectrofluorometric analysis.
The subject of test [2] is Lipid bilayer. Briefly: Induction of membrane lysis in Staphylococcus aureus UL12 lipid vesicles assessed as calcein release at 187.5 uM by spectrofluorometric analysis.
The subject of test [3] is Lipid bilayer. Briefly: Induction of membrane lysis in Staphylococcus aureus UL12 lipid vesicles assessed as calcein release at 375 uM by spectrofluorometric analysis.
Test [4] deals with Lipid bilayer. Briefly: Induction of membrane lysis in Staphylococcus aureus UL12 lipid vesicles assessed as calcein release at 750 uM by spectrofluorometric analysis.
For test [5], the system named is Lipid bilayer. Briefly: Induction of membrane lysis in Staphylococcus aureus UL12 lipid vesicles assessed as calcein release at 1500 uM by spectrofluorometric analysis.
In test [6] the test system is Lipid bilayer. Kind of test: Induction of membrane lysis in Staphylococcus aureus UL12 lipid vesicles assessed as calcein release at 3000 uM by spectrofluorometric analysis.
Test [7] has as its system Lipid bilayer. Briefly: Induction of membrane lysis in Escherichia coli W3110 lipid vesicles assessed as calcein release at 93.73 uM by spectrofluorometric analysis.
Test [8] has as its system Lipid bilayer. Briefly: Induction of membrane lysis in Escherichia coli W3110 lipid vesicles assessed as calcein release at 187.5 uM by spectrofluorometric analysis.
In test [9] the test system is Lipid bilayer. Kind of test: Induction of membrane lysis in Escherichia coli W3110 lipid vesicles assessed as calcein release at 375 uM by spectrofluorometric analysis.
Test [10] relates to Lipid bilayer. Briefly: Induction of membrane lysis in Escherichia coli W3110 lipid vesicles assessed as calcein release at 750 uM by spectrofluorometric analysis.
Test [11] concerns Lipid bilayer. Kind of test: Induction of membrane lysis in Escherichia coli W3110 lipid vesicles assessed as calcein release at 1500 uM by spectrofluorometric analysis.
The subject of test [12] is Lipid bilayer. Kind of test: Induction of membrane lysis in Escherichia coli W3110 lipid vesicles assessed as calcein release at 3000 uM by spectrofluorometric analysis.
In test [13] the test system is Staphylococcus aureus. Kind of test: Antibacterial activity against Staphylococcus aureus UL12.
The test system of test [14] is Escherichia coli. Briefly: Antibacterial activity against Escherichia coli W3110.
Test [15] deals with Staphylococcus aureus. Kind of test: Membrane permeabilisation in Staphylococcus aureus UL12 assessed as NPN uptake at 2mM incubated for 1 hr by spectrofluorometric analysis.
The subject of test [16] is Escherichia coli. Briefly: Membrane permeabilisation in Escherichia coli W3110 assessed as NPN uptake at 2mM incubated for 1 hr by spectrofluorometric analysis.
The test system of test [17] is Staphylococcus aureus. Briefly: Membrane permeabilisation in Staphylococcus aureus UL12 assessed as NPN uptake at 2mM incubated overnight by spectrofluorometric analysis.
Test [18] relates to Escherichia coli. Kind of test: Membrane permeabilisation in Escherichia coli W3110 assessed as NPN uptake at 2mM incubated overnight by spectrofluorometric analysis.

On to `CN(C(=O)N(C)c1cccc(N)c1)c1ccccc1`, for which the Activity in the test with Lipid bilayer [1] is 4.45%; with Lipid bilayer [2], 7.13%; in the test with Lipid bilayer [3], 12%; with Lipid bilayer [4], 15.3%; with Lipid bilayer [5], 21.2%; in the test on Lipid bilayer [6], 27%. The Activity in the test with Lipid bilayer [7] was 2.3%; with Lipid bilayer [8], 5.72%; with Lipid bilayer [9] it was 6.75%; in the test on Lipid bilayer [10], 7.44%; with Lipid bilayer [11] it was 8.03%; with Lipid bilayer [12] it was 9.65%. Moreover, the Activity is reported as 46.26% with Staphylococcus aureus [15], 40.18% in the test on Escherichia coli [16], 53.57% with Staphylococcus aureus [17] and 48.79% with Escherichia coli [18]. Moreover, the MIC in the test on Staphylococcus aureus [13] is 2000 µM (≈ 511 µg/mL); against Escherichia coli [14] it was more than 3000 µM.
With `NCC(=O)Nc1cccc(NC(=O)Nc2ccccc2)c1`, the Activity is 6.91% with Lipid bilayer [1]; 11.2% in the test with Lipid bilayer [2]; 17.8% in the test with Lipid bilayer [3]; 27.2% with Lipid bilayer [4]; 31.2% with Lipid bilayer [5]; 44.1% in the test on Lipid bilayer [6]. For the same compound, the Activity in the test with Lipid bilayer [7] is 1.1%; with Lipid bilayer [8], 6.06%; in the test with Lipid bilayer [9], 9.17%; with Lipid bilayer [10], 16.6%; in the test with Lipid bilayer [11], 23.5%; in the test on Lipid bilayer [12], 29.2%. The Activity in the test on Staphylococcus aureus [15] is 69.56%; in the test on Escherichia coli [16], 47.09%; with Staphylococcus aureus [17], 69.56%; in the test with Escherichia coli [18], 50.93%. Also, the MIC against Staphylococcus aureus [13] came out at 1500 µM (≈ 426 µg/mL); against Escherichia coli [14], 2000 µM (≈ 569 µg/mL).
Turning to `CN(C(=O)N(C)c1cccc(NC(=O)c2ccncc2)c1)c1ccccc1`, the Activity in the test with Lipid bilayer [1] is 40%; in the test with Lipid bilayer [2], 48.2%; in the test on Lipid bilayer [3], 49.6%; in the test on Lipid bilayer [4] it was 51.5%; with Lipid bilayer [5] it was 53.1%; in the test on Lipid bilayer [6], 54.6%. Further, the Activity in the test with Lipid bilayer [7] was 24.1%; with Lipid bilayer [8], 24.8%; in the test with Lipid bilayer [9], 26.3%; in the test on Lipid bilayer [10], 29.1%; in the test with Lipid bilayer [11], 33.6%; in the test with Lipid bilayer [12], 35.3%. Further, the Activity with Staphylococcus aureus [15] stood at 50.59%; with Escherichia coli [16] it was 49.57%; with Staphylococcus aureus [17] it was 57.33%; in the test with Escherichia coli [18] it was 52.34%. In addition, the minimal inhibitory concentration (MIC) in the test with Staphylococcus aureus [13] was found to be 1000 µM (≈ 360 µg/mL); in the test on Escherichia coli [14], 2000 µM (≈ 721 µg/mL).
For `CN(C(=O)N(C)c1ccccc1)c1ccccc1`, the Activity was 2.59% in the test on Lipid bilayer [1]; 5.71% with Lipid bilayer [2]; 12.8% with Lipid bilayer [3]; 14.2% in the test on Lipid bilayer [4]; 15.1% in the test with Lipid bilayer [5]; 24.1% with Lipid bilayer [6]. Further, the Activity in the test with Lipid bilayer [7] was 0.82%; with Lipid bilayer [8] it was 2.05%; in the test on Lipid bilayer [9], 4.25%; in the test on Lipid bilayer [10], 6.44%; in the test with Lipid bilayer [11], 7.28%; with Lipid bilayer [12], 9.02%. For the same compound, the Activity was found to be 43.82% in the test on Staphylococcus aureus [15], 40.75% in the test with Escherichia coli [16], 44.34% with Staphylococcus aureus [17] and 38.67% with Escherichia coli [18]. Further, the values for the MIC in the test on Staphylococcus aureus [13] and against Escherichia coli [14] were 2500 µM (≈ 601 µg/mL) and more than 3000 µM, respectively.
As to `O=C(Nc1ccccc1)Nc1ccccc1` [DIPHENYLUREA], the Activity in the test with Lipid bilayer [1] was 7.18%; with Lipid bilayer [2] it was 9.2%; with Lipid bilayer [3], 13.8%; in the test on Lipid bilayer [4], 15.3%; in the test with Lipid bilayer [5], 18.3%; in the test with Lipid bilayer [6], 25.5%. The Activity is 3.17% in the test with Lipid bilayer [7]; 6.27% in the test with Lipid bilayer [8]; 6.47% in the test on Lipid bilayer [9]; 8.53% in the test on Lipid bilayer [10]; 12% with Lipid bilayer [11]; 14.8% in the test with Lipid bilayer [12]. Further, the Activity worked out at 46.01% in the test on Staphylococcus aureus [15], 45.29% with Escherichia coli [16], 49.4% in the test on Staphylococcus aureus [17] and 30.02% in the test on Escherichia coli [18]. In addition, the MIC against Staphylococcus aureus [13] was 2000 µM (≈ 425 µg/mL); against Escherichia coli [14], more than 3000 µM.
Take `Nc1cccc(NC(=O)Nc2ccccc2)c1`: the Activity in the test with Lipid bilayer [1] was 4.58%; in the test with Lipid bilayer [2], 8.34%; in the test with Lipid bilayer [3] it was 10.1%; in the test on Lipid bilayer [4] it was 12.7%; in the test with Lipid bilayer [5] it was 13.8%; with Lipid bilayer [6] it was 15.5%. For the same compound, the Activity is 0.15% in the test with Lipid bilayer [7]; 0.95% in the test on Lipid bilayer [8]; 1.24% in the test with Lipid bilayer [9]; 1.73% in the test with Lipid bilayer [10]; 1.78% in the test on Lipid bilayer [11]; 2.17% with Lipid bilayer [12]. The Activity with Staphylococcus aureus [15] is on record as 38.91%; in the test with Escherichia coli [16] it was 33.93%; in the test with Staphylococcus aureus [17], 19.29%; with Escherichia coli [18], 16.34%. In addition, the MIC was 2500 µM (≈ 568 µg/mL) in the test on Staphylococcus aureus [13] and more than 3000 µM with Escherichia coli [14].
Regarding `CN(C(=O)N(C)c1cccc(NC(=O)CN)c1)c1ccccc1`, the Activity in the test with Lipid bilayer [1] was 4.45%; with Lipid bilayer [2], 10%; in the test with Lipid bilayer [3], 11.8%; in the test with Lipid bilayer [4] it was 13.2%; in the test with Lipid bilayer [5], 15.3%; in the test on Lipid bilayer [6], 17.8%. For the same compound, the Activity is 8.45% with Lipid bilayer [7]; 27.2% in the test with Lipid bilayer [8]; 29.3% in the test with Lipid bilayer [9]; 30% with Lipid bilayer [10]; 31% with Lipid bilayer [11]; 35.5% in the test with Lipid bilayer [12]. For the same compound, the Activity in the test on Staphylococcus aureus [15] was 40.6%; in the test with Escherichia coli [16], 42.47%; with Staphylococcus aureus [17], 36.81%; with Escherichia coli [18], 52.87%. Besides, the MIC with Staphylococcus aureus [13] was determined as 2500 µM (≈ 781 µg/mL); in the test with Escherichia coli [14] it was 2000 µM (≈ 625 µg/mL).

By MIC is commonly meant the lowest concentration that inhibits growth of the organism. Higher therefore signals a less susceptible organism.
